Article PMC10791743, “Selective CK1α degraders exert antiproliferative activity against a broad range of human cancer cell lines” (Nature Communications, 2024)
“And” between values parts separate entries of the source, which are not always exact repeats. Equal entries are not always repeated.

What was measured:
[1] = test system: MOLM-13 cells; assay: TMT quantitative proteomics in MOLM-13; type: cell-based, human; details: for Proteins with significantly reduced abundance (TMT proteomics): 1 μM, 4 h
Description: We next carried out a tandem mass tag (TMT) quantitative proteomics experiment[30] to identify the neosubstrates whose degradation is induced by SJ7095. […] We confirmed the proteomics results by immunoblot analysis of CK1α in MOLM-13 cells following treatment with increasing concentrations of SJ7095 over 4 h (Fig. 2b). Under these conditions compound SJ7095 induced dose-dependent reduction of CK1α protein levels with DC50 value of 15 nM.
Each compound was tested in three wells of 2 million MOLM-13 cells each. […] Cells were then collected and washed with DPBS. Washed cells were centrifuged at 400×g for 5 min at 4 °C, the supernatant was removed, and pellets were snap frozen in liquid nitrogen and stored at −80 °C until sample submission.
The experiment was performed with a previously optimized protocol[30] with slight modification. Cell pellets were lysed in lysis buffer (50 mM HEPES, pH 8.5, 8 M urea, and 0.5% sodium deoxycholate). To profile the whole proteome, the protein lysates (approximately 100 µg of protein per sample) were proteolyzed with LysC (Wako) at an enzyme-to-substrate ratio of 1:100 (w/w) for 2 h at 21 °C. Following this the samples were diluted to a final 2 M Urea concentration, and further digested with trypsin (Promega) at an enzyme-to-substrate ratio of 1:50 (w/w) for at least 3 h. The peptides were reduced by adding 1 mM DTT for 30 min at 21 °C followed by alkylation with 10 mM iodoacetamide (IAA) for 30 min in the dark. The unreacted IAA was quenched with 30 mM DTT for 30 min. Finally, the digestion was stopped by adding trifluoroacetic acid (TFA) to 1%, desalted using C18 cartridges (Harvard Apparatus), and dried by speedvac. The purified peptides were resuspended in 50 mM HEPES (pH 8.5), and labeled with TMT reagents (Thermo Scientific). The differentially labeled samples were pooled equally, desalted, and dried for the subsequent peptide fractionation. Peptide analysis by two-dimensional liquid chromatography–tandem mass spectrometry (LC/LC–MS/MS) and MS data analysis are described in Supplementary Material. […]
Identification/quantification of proteins
The MS/MS raw data were processed by a tag-based hybrid search engine, JUMP7. The data was […]
concatenated with a reversed decoy database for evaluating False Discovery Rate (FDR). Searches were performed using a 15 ppm mass tolerance for precursor ions, fully tryptic restriction with two maximal missed cleavages, three maximal modification sites, and the assignment of b, and y ions.
TMT tags on lysine residues and N-termini (+304.2071453 Da for TMT16 and TMT18) were used for static modifications. In addition, oxidation of Methionine (Met) was considered as a dynamic modification (+15.99492 Da). Putative peptide spectral matches (PSMs) were filtered by mass accuracy and then grouped by precursor ion charge state and further filtered by JUMP-based matching scores, Jscore and ΔJn, to achieve the protein FDR below 1%. For quantification, TMT intensities of reporter ions were extracted, filtered, normalized, and summarized into peptide and […]
Differential expression analysis of proteins
Identification of differentially expressed proteins were conducted by the limma R package8. To control multiple testing, the Benjamini-Hochberg method was employed. Proteins with an adjusted […]
p value of < 0.05 and log2 fold change of > 2-fold of standard deviation (SD) were defined as differentially expressed. […]

[2] = target: T1, CRBN (Homo sapiens, UniProt Q96SW2); assay: CRBN fluorescence polarization (FP) displacement assay; type: binding; design: key: % activity normalized to DMSO (0) and CC-220 (100) controls
T1 construct: 6XHis (N)
T1 sequence (Q96SW2 whole entry): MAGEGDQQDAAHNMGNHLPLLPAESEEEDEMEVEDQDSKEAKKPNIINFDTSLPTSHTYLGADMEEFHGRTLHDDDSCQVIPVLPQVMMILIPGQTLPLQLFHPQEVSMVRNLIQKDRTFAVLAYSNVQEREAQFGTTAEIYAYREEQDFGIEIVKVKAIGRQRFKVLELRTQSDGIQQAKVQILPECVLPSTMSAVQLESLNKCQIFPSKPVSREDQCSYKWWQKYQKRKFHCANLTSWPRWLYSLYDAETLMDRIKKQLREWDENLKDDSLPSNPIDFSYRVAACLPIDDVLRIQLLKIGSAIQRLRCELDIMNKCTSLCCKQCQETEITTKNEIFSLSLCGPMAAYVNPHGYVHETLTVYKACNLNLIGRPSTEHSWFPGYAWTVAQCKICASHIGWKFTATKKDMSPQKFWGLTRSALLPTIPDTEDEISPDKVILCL
T1 sequence (Q16531 whole entry partner): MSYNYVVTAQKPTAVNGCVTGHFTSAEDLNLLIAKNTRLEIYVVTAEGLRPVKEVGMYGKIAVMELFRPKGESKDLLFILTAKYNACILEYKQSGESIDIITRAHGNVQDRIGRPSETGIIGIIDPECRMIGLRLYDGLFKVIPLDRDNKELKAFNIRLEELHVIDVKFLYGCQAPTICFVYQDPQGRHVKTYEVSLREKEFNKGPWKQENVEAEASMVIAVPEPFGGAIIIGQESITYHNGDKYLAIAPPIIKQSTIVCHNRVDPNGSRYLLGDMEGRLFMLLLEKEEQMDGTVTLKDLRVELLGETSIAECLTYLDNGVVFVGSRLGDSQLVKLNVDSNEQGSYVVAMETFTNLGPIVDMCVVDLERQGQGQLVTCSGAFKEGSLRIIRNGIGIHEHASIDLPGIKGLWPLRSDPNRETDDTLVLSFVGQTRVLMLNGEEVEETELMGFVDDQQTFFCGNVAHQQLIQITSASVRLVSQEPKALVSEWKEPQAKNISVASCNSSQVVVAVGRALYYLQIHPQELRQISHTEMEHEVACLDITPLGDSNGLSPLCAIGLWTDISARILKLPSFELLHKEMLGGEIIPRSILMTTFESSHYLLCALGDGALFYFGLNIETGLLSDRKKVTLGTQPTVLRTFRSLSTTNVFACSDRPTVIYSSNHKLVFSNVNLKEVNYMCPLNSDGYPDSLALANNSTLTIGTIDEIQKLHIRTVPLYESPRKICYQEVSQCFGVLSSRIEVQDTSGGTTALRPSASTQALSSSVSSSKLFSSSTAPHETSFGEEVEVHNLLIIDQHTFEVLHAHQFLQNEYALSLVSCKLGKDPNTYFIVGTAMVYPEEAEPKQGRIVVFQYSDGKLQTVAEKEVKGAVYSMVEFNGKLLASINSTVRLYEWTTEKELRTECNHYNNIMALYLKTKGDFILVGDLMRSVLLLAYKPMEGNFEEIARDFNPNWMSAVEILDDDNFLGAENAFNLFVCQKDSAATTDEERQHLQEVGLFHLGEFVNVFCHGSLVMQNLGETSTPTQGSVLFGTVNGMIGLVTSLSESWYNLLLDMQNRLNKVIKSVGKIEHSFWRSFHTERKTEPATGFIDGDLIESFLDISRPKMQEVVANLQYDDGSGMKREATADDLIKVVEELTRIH
Description: The assay cocktail was prepared by combining 6XHis-CRBN-DDB1 protein (200 nM) and Cy5-O-Len probe (30 nM) in 20 mM HEPES pH 7, 150 mM NaCl, 0.005% Tween-20 assay buffer. […] Then 20 μL of the assay cocktail was dispensed to wells of the assay plate with a Multidrop Combi Reagent Dispenser (Thermo Fisher Scientific, USA). The plates were incubated in the dark for 1 h at room temperature and then read on an Envision plate reader (Perkin Elmer, USA). Raw intensity values for each compound at each concentration were normalized to obtain % activity using the following equation: 100×[(mean(negctrl)–compound)/(mean (negctrl)–mean (posctrl))], and then pooled from replicate experiments prior to fitting. Here, negctrl and posctrl refer to the negative (DMSO) and positive controls (CC-220) on each plate. Dose-response curves were fit to the Hill equation using the GraphPad Prism (version 10).

[3] = test system: MOLM-13 cells; assay: MOLM-13 cell viability assay (CTG, 72 h); type: cell-based, human; design: key to Cell viability in MOLM-13 cells / cell viability, dose-response replicate values: % viability = 100 − % activity, normalized to controls
Description: The primary screen was performed in 384-well format using the CellTiter Glo (CTG) luminescent cell viability assay (Promega) as previously described. […] After overnight incubation at 37 °C in a humidified 5% CO2 incubator, cells were treated with compounds in dose–response format using a Pintool on a Biomek FX^P Laboratory Automation Workstation (Beckman Coulter). […] Luminescence signal was measured using an EnVision plate reader (PerkinElmer). […]
number per well and incubated overnight at 37 °C in a humidified 5 % CO2 incubator. Compounds were transferred to the assay plate from a dose-response plate using a Labcyte Echo 650 Acoustic Liquid Handler (Beckman Coulter , USA). […]
using Promega’s CellTiter-Glo reagent according to the manufacturer’s recommendation.
Luminescence was measured on the Envision plate reader (PerkinElmer, USA). Raw luminescence relative light unit (RLU) values for each compound at each concentration were normalized to obtain % activity using the following equation (1): 100 × [(mean(negctrl) – compound)/(mean (negctrl) – mean (posctrl))]. The % activity was converted to % viability using the following equation (2):
(100 – % activity), and then pooled from replicate experiments prior to fitting. Here, negctrl and posctrl refer to the negative (DMSO) and positive controls (staurosporine) on each plate. Dose-response curves were fit to the Hill equation using the GraphPad Prism (version 10). […]

## Cc1cccc(C(=O)Nc2ccc3c(c2)CN(C2CCC(=O)NC2=O)C3=O)c1 (stereo not shown) [SJ0040]
[1]
  Proteins with significantly reduced abundance (TMT proteomics): significantly reduced the abundance of only CK1α out of >9000 proteins
[1]; 1uM, 4h
  Log2FC vs. DMSO, BHLHE40: 0.522
  Log2FC vs. DMSO, CSNK1A1: -1.896
[2]; SJ10040, [Compound] 2.71597 mM
  CRBN binding FP, Activity: 47.7349 and 37.554 and 42.475
[2]; SJ10040, [Compound] 8.14792 mM
  CRBN binding FP, Activity: 56.459 and 48.508 and 56.8103
[2]; SJ10040, [Compound] 24.44375 mM
  CRBN binding FP, Activity: 60.7319 and 59.4621 and 64.1617
[2]; SJ10040, [Compound] 73.33125 mM
  CRBN binding FP, Activity: 69.456 and 67.5893 and 79.2322
[3]; SJ0040 series, Conc 0.000596098
  Cell viability in MOLM-13 cells: 72.251 and 62.2023 and 81.3879
[3]; SJ0040 series, Conc 0.0017883
  Cell viability in MOLM-13 cells: 82.0109 and 75.8813 and 72.6272
[3]; SJ0040 series, Conc 0.00536488
  Cell viability in MOLM-13 cells: 61.7374 and 60.0676 and 62.6116
[3]; SJ0040 series, Conc 0.0160947
  Cell viability in MOLM-13 cells: 47.3097 and 40.7507 and 48.8062
[3]; SJ0040 series, Conc 0.048284
  Cell viability in MOLM-13 cells: 27.7074 and 26.3493 and 30.1451
[3]; SJ0040 series, Conc 0.144852
  Cell viability in MOLM-13 cells: 14.8484 and 15.2529 and 14.8047
[3]; SJ0040 series, Conc 0.434556
  Cell viability in MOLM-13 cells: 9.851 and 9.013 and 9.549
[3]; SJ0040 series, Conc 1.30367
  Cell viability in MOLM-13 cells: 6.737 and 6.253 and 6.807
[3]; SJ0040 series, Conc 3.911
  Cell viability in MOLM-13 cells: 4.756 and 5.128 and 7.933

## O=C1CCC(N2Cc3cc(Nc4noc5ccccc45)ccc3C2=O)C(=O)N1 (stereo not shown) [SJ3149]
[1]
  Proteins with significantly reduced abundance (TMT proteomics): significantly reduced the abundance of only CK1α out of >9000 proteins
[1]; 1uM, 4h
  Log2FC vs. DMSO, CSNK1A1: -0.851
  Log2FC vs. DMSO, CTNNB1: 1.473
[2]; SJ3149, [Compound] 0.25625 mM
  CRBN binding FP, Activity: 17.1311 and 16.8724 and 13.6243
[2]; SJ3149, [Compound] 0.76875 mM
  CRBN binding FP, Activity: 34.3137 and 35.3073 and 29.4577
[2]; SJ3149, [Compound] 2.31250 mM
  CRBN binding FP, Activity: 56.4886 and 56.6964 and 54.8148
[2]; SJ3149, [Compound] 6.93750 mM
  CRBN binding FP, Activity: 75.4128 and 74.3041 and 71.3624
[2]; SJ3149, [Compound] 20.81250 mM
  CRBN binding FP, Activity: 81.1017 and 84.4669 and 74.3386
[2]; SJ3149, [Compound] 62.50000 mM
  CRBN binding FP, Activity: 71.4654 and 75.3676 and 66.9577
[3]; CTG 72 h
  Effect on MOLM-13 cell viability (cytotoxicity): more robust effect on the viability of MOLM-13 cells
[3]; Homo sapiens, MOLM-13, CTG 72 h, read-out: IC50, MOLM-13 cell growth/viability
  IC50: 0.013 µM
[3]; SJ3149 series, Conc 0.000508
  Cell viability in MOLM-13 cells: 101.693 and 103.275 and 101.343
[3]; SJ3149 series, Conc 0.00152416
  Cell viability in MOLM-13 cells: 101.046 and 101.638 and 102.894
[3]; SJ3149 series, Conc 0.00457247
  Cell viability in MOLM-13 cells: 93.8551 and 92.4498 and 91.2385
[3]; SJ3149 series, Conc 0.0137174
  Cell viability in MOLM-13 cells: 62.1406 and 65.1592 and 63.0989
[3]; SJ3149 series, Conc 0.0411523
  Cell viability in MOLM-13 cells: 25.3582 and 28.4617 and 24.9569
[3]; SJ3149 series, Conc 0.123457
  Cell viability in MOLM-13 cells: 6.148 and 8.382 and 8.141
[3]; SJ3149 series, Conc 0.37037
  Cell viability in MOLM-13 cells: 3.25 and 4.028 and 3.791
[3]; SJ3149 series, Conc 1.11111
  Cell viability in MOLM-13 cells: 2.026 and 2.1314 and 2.9156
[3]; SJ3149 series, Conc 3.33333
  Cell viability in MOLM-13 cells: 1.946 and 1.78 and 2.069
[3]; SJ3149 series, Conc 10
  Cell viability in MOLM-13 cells: 0.7978 and 0.8668 and 1.097
